# Read-outs that look alike come from different tables or passages of the source.
# System: cultured human mast cells (CHMC)
# Test: CHMC low cell density IgE activation: tryptase assay
# Type: cell-based
# Settings: low cell density CHMC, IgE activation
# Protocol: Inhibition of degranulation was measured at both low and high cell density by quantifying the release of the granule specific factors tryptase, histamine and hexosaminidase. Inhibition of release and/or synthesis of lipid mediators was assessed by measuring the release of leukotriene LTC4 and inhibition of release and/or synthesis of cytokines was monitored by quantifying TNF-α, IL-6 and IL-13. Tryptase and hexosaminidase were quantified using fluorogenic substrates as described in their respective examples. […] The protocols of the various assays are provided below.
# Pellet CHMC cells (980 rpm, 10 min) and resuspend in pre-warmed MT. Add 65 ul of cells to each 96-well plate. Depending on the degranulation activity for each particular CHMC donor, load 1000-1500 cells/well. Mix four times followed by a 1 hr incubation at 37° C. […] Stimulate cells by adding 25 ul of 6× anti-IgE solution to the appropriate plates. Add 25 ul MT to un-stimulated control wells. Mix twice following addition of the anti-IgE. Incubate at 37° C. for 30 minutes. […] Spin plates at 1000 rpm for 10 min to pellet cells. Transfer 25 ul of supernatant to a 96-well black bottom plate and add 100 ul of freshly diluted tryptase substrate solution to each well. Incubate plates at room temperature for 30 min.
# [1] = Homo sapiens, Mast cell, tryptase release, 3 pt, read-out: LD Tryptase, CHMC, IgE, 3 pt
# [2] = Homo sapiens, Mast cell, tryptase, 3 pt, read-out: LD Tryptase, CHMC, IgE, 3 pt
# [3] = Homo sapiens, Mast cell, tryptase, 8 pt, read-out: LD Tryptase, CHMC, IgE, 8 pt
# [4] = tryptase, 3 pt, read-out: LD Tryptase, CHMC, IgE, 3 pt
# [5] = tryptase, 8 pt, read-out: LD Tryptase, CHMC, IgE, 8 pt
smiles,measurement,setting,value
"COc1cc(Nc2nc(Nc3cc(C)c(O)c(Cl)c3)ncc2F)cc(C(F)(F)F)c1 [Compound 336, N2-(3-Chloro-4-hydroxy-5-methylphenyl)-5-fluoro-N4-(3-methoxy-5-trifluoromethylphenyl)-2,4-pyrimidinediamine]",IC50,[1],< 10 µM
COc1cc(Nc2nc(Nc3cc(Cl)cc(Cl)c3)ncc2F)cc(C(F)(F)F)c1 [Compound 337],IC50,[1],< 10 µM
COc1cc(Nc2nc(Nc3cc(C)c(Cl)c(C)c3)ncc2F)cc(C(F)(F)F)c1 [Compound 339],IC50,[1],> 10 µM
COc1cc(Nc2ncc(F)c(Nc3cc(OC)cc(OC)c3)n2)cc(OC)c1 [Compound 340],IC50,[1],< 10 µM
same,IC50,"Homo sapiens, Mast cell, tryptase release, 8 pt, read-out: LD Tryptase, CHMC, IgE, 8 pt",< 10 µM
"Cc1cc(C)cc(Nc2ncc(F)c(Nc3cc(C)cc(C)c3)n2)c1 [Compound 341, N2,N4-Bis (3,5-dimethylphenyl)-5-fluoro-2,4-pyrimidinediamine]",IC50,[2],< 10 µM
"CC1(C)Oc2ccc(Nc3nc(Nc4cc(CO)cc(CO)c4)ncc3F)cc2NC1=O [Compound 344, N2-[3,5-Bis (hydoxymethylene)phenyl]-N4-(2,2-dimethyl-3-oxo-4H-benz[1,4]oxazin-6-yl)-5-fluoro-2,4-pyrimidinediamine]",IC50,[3],< 10 µM
"CNC(=O)n1ccc2ccc(Nc3ncc(F)c(Nc4ccc5c(c4)NC(=O)C(C)(C)O5)n3)cc21 [Compound 347, N4-(2,2-Dimethyl-3-oxo-4H-benz[1,4]oxazin-6-yl)-N2-[1-(N-methylaminocarbony)lindol-6-yl)-5-fluoro-2,4-pyrimidinediamine]",IC50,[4],< 10 µM
CC1(C)Oc2ccc(Nc3nc(Nc4ccc5ccn(C(N)=O)c5c4)ncc3F)cc2NC1=O [Compound 348],IC50,[2],> 10 µM
COc1cc(Nc2nc(Nc3cc(C)c(Cl)c(C)c3)ncc2F)cc(OC)c1 [Compound 349],IC50,[2],< 10 µM
"COc1cc(Nc2nc(Nc3ccc4c(c3)OCCO4)ncc2F)cc(OC)c1 [Compound 351, N4-(3,5-Dimethoxyphenyl)-N2-(3,4-ethylenedioxyphenyl)-5-fluoro-2,4-pyrimidinediamine]",IC50,[3],< 10 µM
COc1cc(Nc2nc(Nc3cc(Cl)cc(Cl)c3)ncc2F)cc(OC)c1 [Compound 352],IC50,[2],< 10 µM
COc1cc(Nc2nc(Nc3cc(C)cc(C(F)(F)F)c3)ncc2F)cc(OC)c1 [Compound 353],IC50,[2],< 10 µM
Fc1cnc(Nc2cc(Cl)cc(Cl)c2)nc1Nc1ccc2c(c1)OCCO2 [Compound 354],IC50,[3],< 10 µM
COc1cc(Nc2nc(Nc3cc(OC)cc(C(F)(F)F)c3)ncc2F)cc(OC)c1 [Compound 355],IC50,[2],< 10 µM
"COc1cc(Nc2ncc(F)c(Nc3ccc4c(c3)OCCO4)n2)cc(C(F)(F)F)c1 [Compound 356, N4-(3,4-Ethylenedioxyphenyl)-5-fluoro-N2-(3-methoxy-5-trifluoromethylphenyl)-2,4-pyrimidinediamine]",IC50,[3],< 10 µM
COc1cc(Nc2ncc(F)c(Nc3ccc4c(c3)OC(F)(F)C(F)(F)O4)n2)cc(OC)c1 [Compound 357],IC50,[4],< 10 µM
same,IC50,[5],< 10 µM
Cc1cc(Nc2ncc(F)c(Nc3ccc4c(c3)OC(F)(F)C(F)(F)O4)n2)cc(C)c1Cl [Compound 358],IC50,[4],> 10 µM
OCc1cc(CO)cc(Nc2ncc(F)c(Nc3ccc4c(c3)OC(F)(F)C(F)(F)O4)n2)c1 [Compound 359],IC50,[5],< 10 µM
Fc1cnc(Nc2cc(Cl)cc(Cl)c2)nc1Nc1ccc2c(c1)OC(F)(F)C(F)(F)O2 [Compound 360],IC50,[4],> 10 µM
COc1cc(Nc2ncc(F)c(Nc3ccc4c(c3)OC(F)(F)C(F)(F)O4)n2)cc(C(F)(F)F)c1 [Compound 361],IC50,[4],< 10 µM
"Cc1cc(C)cc(Nc2ncc(F)c(Nc3ccc4c(c3)OC(F)(F)C(F)(F)O4)n2)c1 [Compound 362, N2-(3,5-Dimethyphenyl)-5-fluoro-N4-[3,4-(tetrafluoroethylenedioxy)phenyl]-2,4-pyrimidinediamine]",IC50,[4],< 10 µM
same,IC50,[5],> 10 µM
"Cc1cc(Nc2ncc(F)c(Nc3ccc4c(c3)OC(F)(F)C(F)(F)O4)n2)cc(C(F)(F)F)c1 [Compound 366, 5-Fluoro-N2-(3-methyl-5-trifluoromethyl)-N4-[3,4-(tetrafluoroethylenedioxy)phenyl]-2,4-pyrimidinediamine]",IC50,[4],< 10 µM

# — patent publication US20220073536A1 (Rigel Pharmaceuticals, Inc., priority 2003, published 2022)
